Experimental findings from PubChem BioAssay (NCI) are described below.

Among the test systems are HL-60(TB) leukemia; UACC-62 melanoma; T-47D breast; SK-OV-3 ovarian; NCI-H226 lung; MDA-N; SK-MEL-28 melanoma; COLO 205 colon; TK-10 renal; 786-0 renal; CCRF-CEM leukemia.
What all share (experiment): inhibition of tumour cell growth, NCI panel, 48 h

Structures are written as SMILES.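 Following 48 hours of exposure in 96-well plates, responses at five concentrations were used to interpolate endpoints linearly. TGI: concentration producing complete growth inhibition.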

As to `COC(=O)Nc1nc2ccc(NC(=O)c3ccc(I)cc3)cc2[nH]1`, the TGI with HL-60(TB) leukemia, with UACC-62 melanoma, with T-47D breast, in the assay on SK-OV-3 ovarian, in the assay on NCI-H226 lung and in the assay with MDA-N was more than 100 µM each time. The TGI in the assay with SK-MEL-28 melanoma, in the assay with COLO 205 colon, with TK-10 renal, in the assay with 786-0 renal and in the assay with CCRF-CEM leukemia was more than 100 µM each time.

As to `O=C1/C(=C/c2cccc3ccccc23)CCc2ccc([N+](=O)[O-])cc21`, the TGI is more than 100 µM in the assay with HL-60(TB) leukemia; 65.8 µM with UACC-62 melanoma; more than 100 µM with T-47D breast; 77.8 µM with SK-OV-3 ovarian; more than 100 µM in the assay with NCI-H226 lung; 23.4 µM with MDA-N. For the same compound, the TGI is more than 100 µM in the assay on SK-MEL-28 melanoma; more than 100 µM with COLO 205 colon; more than 100 µM in the assay on TK-10 renal; 65.5 µM in the assay on 786-0 renal; more than 100 µM with CCRF-CEM leukemia.

In the case of `NC(N)=NC1C(O)C(O)C(O)C(N=C(N)N)C1O` (configuration not stated), the TGI with HL-60(TB) leukemia, in the assay with UACC-62 melanoma, with T-47D breast, with SK-OV-3 ovarian, in the assay on MDA-N and with SK-MEL-28 melanoma was more than 100 µM in each case. Also, the TGI with COLO 205 colon, with TK-10 renal, in the assay with 786-0 renal and with CCRF-CEM leukemia was more than 100 µM each time.

With `O=C(c1ccc(Cl)cc1)N1CCN=C1c1cc2ccccc2c2ccccc12`, the TGI in the assay on HL-60(TB) leukemia was found to be 49.9 µM; in the assay with UACC-62 melanoma, 27.7 µM; in the assay on T-47D breast it was 54.4 µM; in the assay with SK-OV-3 ovarian, 29.6 µM; with MDA-N, 31.9 µM; with SK-MEL-28 melanoma, 29.7 µM. The TGI in the assay with COLO 205 colon turned out to be 29.5 µM; with TK-10 renal, 29.2 µM; with 786-0 renal it was 30.4 µM; in the assay on CCRF-CEM leukemia it was 81.1 µM.

With `Cc1nc(Nc2ccccc2Cl)sc1C(=O)CC(=O)C(N)=O`, the TGI with HL-60(TB) leukemia, in the assay on UACC-62 melanoma, in the assay with T-47D breast, in the assay on SK-OV-3 ovarian, in the assay on NCI-H226 lung and in the assay with MDA-N was more than 100 µM each time. For the same compound, the TGI in the assay on COLO 205 colon, in the assay with TK-10 renal, in the assay with 786-0 renal and in the assay on CCRF-CEM leukemia was more than 100 µM each time.

As to `CCOC(=O)CCC(C(=O)OCC)n1nnc2cc(Nc3c(C)[n+]([O-])c4cc(F)c(OCC)cc4[n+]3[O-])ccc21` (configuration not stated), the TGI with HL-60(TB) leukemia, in the assay on UACC-62 melanoma, with T-47D breast, with SK-OV-3 ovarian, in the assay on NCI-H226 lung and in the assay with MDA-N was more than 100 µM in each case. The TGI with COLO 205 colon, with TK-10 renal, with 786-0 renal and with CCRF-CEM leukemia was more than 100 µM in each case.

For `S=C1SC(=Nc2ccccc2)C(=Nc2ccccc2)N1c1ccc2ccccc2c1`, the TGI in the assay on HL-60(TB) leukemia, in the assay on UACC-62 melanoma, in the assay on T-47D breast, in the assay on SK-OV-3 ovarian, in the assay on NCI-H226 lung and in the assay on MDA-N was more than 100 µM each time. The TGI with SK-MEL-28 melanoma, in the assay with COLO 205 colon and in the assay on CCRF-CEM leukemia was more than 100 µM throughout.

Regarding `Clc1ccc(C2=CCN3CC=C(c4ccc(Cl)cc4)C23)cc1`, the TGI stood at 19.7 µM in the assay on HL-60(TB) leukemia; 21.2 µM in the assay with UACC-62 melanoma; 29.2 µM in the assay on T-47D breast; 43.2 µM in the assay with NCI-H226 lung; 22.7 µM with MDA-N; 28 µM in the assay with SK-MEL-28 melanoma. Moreover, the TGI stood at 6.28 µM in the assay with COLO 205 colon, 27.5 µM in the assay on TK-10 renal, 24.1 µM in the assay with 786-0 renal and 52 µM with CCRF-CEM leukemia.

In the case of `O=C1NC(Cc2ccc(O)cc2)C(=O)NC1Cc1ccc(O)cc1` (configuration not stated), the TGI in the assay on HL-60(TB) leukemia, in the assay on UACC-62 melanoma, in the assay on SK-OV-3 ovarian, in the assay on NCI-H226 lung, in the assay with MDA-N and with SK-MEL-28 melanoma was more than 100 µM each time. In addition, the TGI in the assay on COLO 205 colon, with TK-10 renal, with 786-0 renal and in the assay on CCRF-CEM leukemia was more than 100 µM in each case.

On to `CCCCCCCCC#CCCCCCCCCCC[C@@H]1C(=O)O[C@H](C)[C@@H]1O` (tested in a mixture with another compound), for which the TGI is more than 100 µM in the assay with T-47D breast; more than 100 µM in the assay with SK-OV-3 ovarian; more than 100 µM in the assay on NCI-H226 lung; 79.6 µM in the assay with MDA-N; more than 100 µM in the assay on SK-MEL-28 melanoma; more than 100 µM with COLO 205 colon. The TGI amounted to 40.8 µM in the assay on TK-10 renal and 31.4 µM in the assay with 786-0 renal.

On to `CC1(C)Oc2ccc3c(=O)cc(-c4ccccc4)oc3c2C1C(=O)O` (configuration not stated), for which the TGI in the assay on HL-60(TB) leukemia, in the assay with UACC-62 melanoma, in the assay on T-47D breast, in the assay on SK-OV-3 ovarian, with NCI-H226 lung and in the assay with MDA-N was more than 100 µM throughout. The TGI with COLO 205 colon, in the assay with TK-10 renal, in the assay on 786-0 renal and with CCRF-CEM leukemia was more than 100 µM throughout.

As for `Cc1c([C@H](C)[C@@H]2NC[C@@H](C)C[C@H]2O)ccc2c1C[C@H]1[C@H]2CC=C2C[C@@H](O)CC[C@@]21C`, the TGI in the assay with UACC-62 melanoma came to 28.1 µM; in the assay on T-47D breast it was 53.2 µM; in the assay with SK-OV-3 ovarian, 76.9 µM; with NCI-H226 lung, 38.1 µM; in the assay with MDA-N it was 31 µM; in the assay with SK-MEL-28 melanoma, 37.5 µM. Moreover, the TGI in the assay on COLO 205 colon came to 29.4 µM; in the assay on TK-10 renal, 67.3 µM; in the assay on 786-0 renal, 37.9 µM; in the assay on CCRF-CEM leukemia it was 38.4 µM.

`O=[N+]([O-])/C(C(Cl)=C(Cl)Cl)=C(/Nc1cccc2cccnc12)n1nnc2ccccc21`: the TGI came out at 41 µM in the assay on T-47D breast; 32.9 µM in the assay with SK-OV-3 ovarian; 67.4 µM with NCI-H226 lung; 27.2 µM in the assay on MDA-N; 33.5 µM with SK-MEL-28 melanoma; 31.1 µM with COLO 205 colon. The TGI with 786-0 renal was 43.8 µM; with CCRF-CEM leukemia, more than 100 µM.
